Data taken from patent publication US20260034094A1, “COMPOSITIONS AND METHODS FOR INDUCING FERROPTOSIS” (Kojin Therapeutics, Inc., priority 2022, published 2026).
Like-named read-outs stand apart in the source and are kept apart here.

Key:
human recombinant GCL = human recombinant GCL (Homo sapiens (Human), UniProt P48506); assay: GCL enzyme profiling assay (ADP-Glo luminescence); format: biochemical; conditions: read-out: GCL IC50
Experimental: The GCL enzyme assay was run in 50 mM HEPES, pH 7.5, containing 150 mM NaCl, 30 mM MgCl2, 0.5 mM EDTA, 1 mM DTT, 0.1 mg/mL BSA, and 0.02% or in the present case 0.2% F-127 in a total assay volume of 10 μL or 10 mL. Compound in pure DMSO was stamped in assay plates (Greiner black 384-well) or appropriate containers using a D300e digital dispenser (TECAN) and the final DMSO concentration was normalized to 1%. A 5 mL, or in the present case, 5 μL mixture of human recombinant GCL (final concentration: 5 nM) and ATP (final concentration: 0.6 mM) was added and the solution was incubated at room temperature (22° C.) for 1 h. The GCL enzyme reaction was initiated by addition of a 5 μL mixture of mono g-glutamate or in the present example, monosodium glutamate (final concentration: 1 mM) and a-aminobutyrate or α-aminobutyrate (final concentration: 1.2 mM). The reaction was stopped after 1 h or in the present case, 2 h by addition of 5 mL, or in the present case, 5 μL ADP GLO Reagent (Promega). The resulting solution was incubated for 2 h at room temperature. This was then followed by addition of 5 mL, or in the present case, 5 μL ADP GLO Detection. After incubation at room temperature for 30 min, the plates were read on a plate reader (PheraStar) using a luminescence protocol to quantify the GCL enzyme activity from each reaction solution. The data was analyzed using a four-parameter logistic equation to calculate IC50.

RKN cells = assay: RKN cell profiling assay (cell viability, CellTiter-Glo); format: cell-based; conditions: read-out: Cell Killing EC50
Experimental: RKN cells were suspended in assay medium (F-12 medium supplemented with 10% FBS and penicillin/streptomycin) and seeded at 1,000 cells per well (30 μL total volume) in opaque white 384-well plates (Corning). Cells were allowed to adhere for 24 h at 37° C. (95% humidity, 5% CO2) and then exposed to compounds disclosed herein for 72 h, or in the present case, 96 h. DMSO stock solutions of compounds were added to cells using a D300e Digital Dispenser (Tecan). The final DMSO concentration in each well was normalized to 0.5% (v/v) after compound treatment. Cell viability was measured using CellTiter-Glo (Promega). After incubation for 15 min at room temperature, luminescence was measured using a PHERAstar FSX microplate reader (BMG Labtech). Ferroptosis rescue experiments were performed as described previously using cells treated with ferrostatin-1 (fer-1, 1.5 μM) when seeding assay plates. Dose-response data were analyzed to determine EC50 values with GraphPad Prism 9 software using a four-parameter logistic equation or CDD Vault (Collaborative Drug Discovery) using the Levenberg-Marquardt algorithm.

[1] = human recombinant GCL 5 nM, 1 h preincubation with ATP

Chain of human recombinant GCL (P48506 whole entry): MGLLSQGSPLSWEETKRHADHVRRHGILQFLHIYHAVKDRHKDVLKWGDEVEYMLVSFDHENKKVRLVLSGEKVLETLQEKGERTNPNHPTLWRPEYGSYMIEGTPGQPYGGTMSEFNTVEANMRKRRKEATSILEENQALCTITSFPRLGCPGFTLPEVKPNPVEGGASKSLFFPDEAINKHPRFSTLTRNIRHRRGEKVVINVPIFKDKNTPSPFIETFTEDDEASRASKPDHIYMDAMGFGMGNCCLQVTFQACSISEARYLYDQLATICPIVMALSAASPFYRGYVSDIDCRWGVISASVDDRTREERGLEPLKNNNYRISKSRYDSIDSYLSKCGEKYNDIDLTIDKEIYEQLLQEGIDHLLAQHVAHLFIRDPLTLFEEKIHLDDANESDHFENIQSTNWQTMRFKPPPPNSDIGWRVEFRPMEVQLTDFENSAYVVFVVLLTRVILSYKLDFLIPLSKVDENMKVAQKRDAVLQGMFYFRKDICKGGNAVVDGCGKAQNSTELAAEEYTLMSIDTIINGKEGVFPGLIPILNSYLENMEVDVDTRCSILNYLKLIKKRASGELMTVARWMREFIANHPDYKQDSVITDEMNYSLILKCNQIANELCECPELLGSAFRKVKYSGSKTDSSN

SMILES	IC50 (human recombinant GCL; [1]) [µM]	IC50 (human recombinant GCL; human recombinant GCL, ADP-Glo) [µM]	EC50 (RKN cells; 96 h, 96 h exposure) [µM]	EC50 (RKN cells; cell viability) [µM]
CCOC(=O)[C@@H](N)CC[S@@](=N)(=O)CC[C@@H](O)C(F)(F)F [Compound 486, ethyl (S)-2-amino-4-((R,3R)-4,4,4-trifluoro-3-hydroxybutylsulfonimidoyl)butanoate]		20 to 2000		< 1000
N=S(=O)(CC[C@@H](O)C(F)(F)F)CC[C@H](N)C(=O)O (single isomer, unassigned) [Compound 328]		≤ 20		< 1000
CCCCOC(=O)[C@@H](N)CCS(=N)(=O)CCC(C)(C)c1ccccc1 (stereo partly drawn) [Compound 87]	20 to 2000		< 1000	
CC(C)(C)CCS(=N)(=O)CC[C@H](N)C(=O)N1CCCC1 (stereo partly drawn) [Compound 116]	> 2000		≥ 1000	
N=[S@](=O)(CC[C@H](N)C(=O)O)CCC1(c2ccccn2)CCC1 [compound 389]		> 2000		≥ 1000
CC(C)(CCS(=N)(=O)CC[C@H](N)C(=O)O)c1ccccc1Cl (stereo partly drawn) [Compound 66]	20 to 2000		≥ 1000	
N=S(=O)(CCCC(F)(F)F)CC[C@H](N)C(=O)OCc1ccccc1 (stereo partly drawn) [Compound 86]	20 to 2000		< 1000	
N=S(=O)(CC[C@H](N)C(=O)O)CCC(O)(C1[C@@H](c2ccccc2)[C@H]1c1ccccc1)C(F)(F)F (stereo partly drawn) [compound 503]		20 to 2000		≥ 1000
CC(C)(CCS(=N)(=O)CC[C@H](N)C(=O)O)n1cc(-c2ccccc2)nn1 (stereo partly drawn) [Compound 207, (2S)-2-amino-4-(3-methyl-3-(4-phenyl-1H-1,2,3-triazol-1-yl)butylsulfonimidoyl)butanoic acid]	20 to 2000		≥ 1000	
N=S(=O)(CCCC1CC1)CC[C@H](N)C(=O)O (stereo partly drawn) [Compound 134, (2S)-2-amino-4-(3-cyclopropylpropylsulfonimidoyl)butanoic acid]	20 to 2000		≥ 1000	
Cn1cc(-c2ccc(C(O)(CCS(=N)(=O)CC[C@H](N)C(=O)O)C(F)(F)F)nc2)cn1 (stereo partly drawn) [Compound 472]				≥ 1000
Cc1cc(Cl)ccc1-c1cnc(C(O)(CCS(=N)(=O)CC[C@H](N)C(=O)O)C(F)(F)F)nc1 (stereo partly drawn) [Compound 474]				< 1000
N=S(=O)(CCC(c1ccc(-c2ccccc2Cl)cc1)C(F)(F)F)CC[C@H](N)C(=O)O (stereo partly drawn) [Compound 221]				< 1000
N=S(=O)(CCCc1cn[nH]c1)CC[C@H](N)C(=O)O (stereo partly drawn) [Compound 50, (2S)-4-(3-(1H-pyrazol-4-yl)propylsulfonimidoyl)-2-aminobutanoic acid]	20 to 2000			
C=Cc1ccc(C(CCS(=N)(=O)CC[C@H](N)C(=O)O)C(F)(F)F)cc1 (stereo partly drawn) [Compound 261]				< 1000
N=S(=O)(CC[C@H](N)C(=O)O)CCC(O)(c1ccc2ccccc2n1)C(F)(F)F (stereo partly drawn) [Compound 373]				< 1000
N=S(=O)(CCC(c1ccc(-c2cnc3[nH]ncc3c2)cc1)C(F)(F)F)CC[C@H](N)C(=O)O (stereo partly drawn) [Compound 254]				≥ 1000
Cc1cc(F)ccc1-c1ccc(C(CCS(=N)(=O)CC[C@H](N)C(=O)O)C(F)(F)F)cc1 (stereo partly drawn) [Compound 278]				< 1000

Second part, led by results:

IC50 (human recombinant GCL; [1]) [µM]	IC50 (human recombinant GCL; human recombinant GCL, ADP-Glo) [µM]	SMILES	EC50 (RKN cells; 96 h, 96 h exposure) [µM]	EC50 (RKN cells; cell viability) [µM]
20 to 2000		N=S(=O)(CCC(c1ccccc1)C(F)(F)F)CC[C@H](N)C(=O)O (stereo partly drawn) [Compound 53]	< 1000	
20 to 2000		N=S(=O)(CCC(c1ccccc1)c1ccccc1)CC[C@H](N)C(=O)O (stereo partly drawn) [Compound 55]	≥ 1000	
> 2000		CCCCS(=N)(=O)CC[C@H](NC)C(=O)O (stereo partly drawn) [Compound 159]	≥ 1000	
20 to 2000		COC(C)(C)CCS(=N)(=O)CC[C@H](N)C(=O)O (stereo partly drawn) [Compound 158]	< 1000	
≤ 20		Cc1c(F)cccc1CCS(=N)(=O)CC[C@H](N)C(=O)O (stereo partly drawn) [Compound 26]	< 1000	
	≤ 20	N=S(=O)(CCC(c1ccc(-c2cc(F)ccc2O)cc1)C(F)(F)F)CC[C@H](N)C(=O)O (stereo partly drawn) [Compound 232]		< 1000
	20 to 2000	N=S(=O)(CC[C@H](N)C(=O)O)CCC1(O)CC(F)(F)C1 (stereo partly drawn) [Compound 303]		< 1000
20 to 2000		Cc1ccccc1OCCS(=N)(=O)CC[C@H](N)C(=O)O (stereo partly drawn) [Compound 14]		
	> 2000	C#CCNC(=O)[C@@H](N)CCS(=N)(=O)CCCC (stereo partly drawn) [compound 493]		
20 to 2000		CC(COC(=O)c1ccccc1)OC(=O)[C@@H](N)CCS(=N)(=O)CCC(C)(C)C (stereo partly drawn) [Compound 98]		
